Where two headings read alike, the source gives them in different places.
Target: T1, PLK1 (Homo sapiens, UniProt P53350)
T1 construct: endogenous in cells; host or cells: HeLa
Assay: PLK1 protein degradation in HeLa cells, Western blotting (PLK1/GAPDH ratio)
Assay type: cell-based
Conditions: 6 hours compound incubation; for Dmax: thymidine block and release, 10 points three-fold from 3 μM, PLK1 to GAPDH ratio; for DC50: measured only if the grade of Dmax is A or B
Method in brief: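 Thymidine-synchronised HeLa cells (2 mM, 24 h) released 4 h into complete medium, then treated 6 h with compound in 10-point 3-fold dilutions from 3 μM. RIPA lysates (15 μg protein) run on SDS-PAGE; PLK1 Western blot normalised to GAPDH.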

T1 sequence (P53350 whole entry): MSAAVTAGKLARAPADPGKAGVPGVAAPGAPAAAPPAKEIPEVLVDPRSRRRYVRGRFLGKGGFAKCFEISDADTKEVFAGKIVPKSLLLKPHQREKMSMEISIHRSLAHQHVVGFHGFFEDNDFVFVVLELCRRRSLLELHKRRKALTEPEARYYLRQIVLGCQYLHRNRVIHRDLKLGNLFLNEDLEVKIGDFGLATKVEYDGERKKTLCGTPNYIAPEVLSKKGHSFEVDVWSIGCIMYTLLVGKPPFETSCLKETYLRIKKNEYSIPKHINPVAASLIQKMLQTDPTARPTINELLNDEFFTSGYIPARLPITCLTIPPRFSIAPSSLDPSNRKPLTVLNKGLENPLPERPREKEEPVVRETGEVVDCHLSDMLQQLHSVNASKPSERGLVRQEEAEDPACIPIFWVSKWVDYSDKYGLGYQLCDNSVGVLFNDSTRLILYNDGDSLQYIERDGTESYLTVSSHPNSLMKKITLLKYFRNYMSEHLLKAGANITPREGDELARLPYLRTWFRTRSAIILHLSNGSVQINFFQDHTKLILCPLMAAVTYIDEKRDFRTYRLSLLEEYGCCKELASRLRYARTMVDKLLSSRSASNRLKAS

Compound | Dmax (read-out: Dmax) [%] | DC50 [nM] | Dmax
COc1cc(C(=O)NC2CCN(CCCCCNC(=O)COc3cccc4c3C(=O)N(C3CCC(=O)NC3=O)C4=O)CC2)c(F)cc1Nc1ncc2c(n1)N(C1CCCC1)CC(F)(F)C(=O)N2C (stereo not drawn) [Compound 59, 4-((9-cyclopentyl-7,7-difluoro-5-methyl-6-oxo-6,7,8,9-tetrahydro-5H-pyrimido[4,5-b][1,4]diazepin-2-yl)amino)-N-(1-(5-(2-((2-(2,6-dioxopiperidin-3-yl)-1,3-dioxoisoindolin-4-yl)oxy)acetamido)pentyl)piperidin-4-yl)-2-fluoro-5-methoxybenzamide] | < 60 |  | 
COc1cc(C(=O)NC2CCN(Cc3cccc(CNC(=O)COc4cccc5c4C(=O)N(C4CCC(=O)NC4=O)C5=O)c3)CC2)c(F)cc1Nc1ncc2c(n1)N(C1CCCC1)CC(F)(F)C(=O)N2C (stereo not drawn) [Compound 61, 4-((9-cyclopentyl-7,7-difluoro-5-methyl-6-oxo-6,7,8,9-tetrahydro-5H-pyrimido[4,5-b][1,4]diazepin-2-yl)amino)-N-(1-(3-((2-((2-(2,6-dioxopiperidin-3-yl)-1,3-dioxoisoindolin-4-yl)oxy)acetamido)methyl)benzyl)piperidin-4-yl)-2-fluoro-5-methoxybenzamide] | 60 to 80 | ≤ 50 | 
COc1cc(C(=O)NC2CCN(CCOCCOCCNc3cccc4c3C(=O)N(C3CCC(=O)NC3=O)C4=O)CC2)c(F)cc1Nc1ncc2c(n1)N(C(C)C)CC(F)(F)C(=O)N2C (stereo not drawn) [Example 100, 4-((7,7-difluoro-9-isopropyl-5-methyl-6-oxo-6,7,8,9-tetrahydro-5H-pyrimido[4,5-b][1,4]diazepin-2-yl)amino)-N-(1-(2-(2-(2-((2-(2,6-dioxopiperidin-3-yl)-1,3-dioxoisoindolin-4-yl)amino)ethoxy)ethoxy)ethyl)piperidin-4-yl)-2-fluoro-5-methoxybenzamide] | 60 to 80 | ≤ 500 | 
COc1cc(C(=O)NC2CCN(CCOCCOCCOCCOCCOCC(=O)N[C@H](C(=O)N3C[C@H](O)C[C@H]3C(=O)NCc3ccc(-c4scnc4C)cc3)C(C)(C)C)CC2)c(F)cc1Nc1ncc2c(n1)N(C1CCCC1)CC(F)(F)C(=O)N2C [Example 83] |  |  | C (C: less than 60%)
COc1cc(C(=O)NC2CCN(CCCCCNc3cccc4c3C(=O)N(C3CCC(=O)NC3=O)C4=O)C2)c(F)cc1Nc1ncc2c(n1)N(C1CCCC1)CC(F)(F)C(=O)N2C (stereo not drawn) [Example 109, 4-((9-cyclopentyl-7,7-difluoro-5-methyl-6-oxo-6,7,8,9-tetrahydro-5H-pyrimido[4,5-b][1,4]diazepin-2-yl)amino)-N-(1-(5-((2-(2,6-dioxopiperidin-3-yl)-1,3-dioxoisoindolin-4-yl)amino)pentyl)pyrrolidin-3-yl)-2-fluoro-5-methoxybenzamide] | 60 to 80 | ≤ 500 | 
COc1cc(C(=O)NC2CC3(C2)CN(C(=O)CCCNc2cccc4c2C(=O)N(C2CCC(=O)NC2=O)C4=O)C3)c(F)cc1Nc1ncc2c(n1)N(C1CCCC1)CC(F)(F)C(=O)N2C (stereo not drawn) [Compound 160, 4-((9-cyclopentyl-7,7-difluoro-5-methyl-6-oxo-6,7,8,9-tetrahydro-5H-pyrimido[4,5-b][1,4]diazepin-2-yl)amino)-N-(2-(4-((2-(2,6-dioxopiperidin-3-yl)-1,3-dioxoisoindolin-4-yl)amino)butanoyl)-2-azaspiro[3.3]heptan-6-yl)-2-fluoro-5-methoxybenzamide] | ≥ 80 | ≤ 50 | 
COc1cc(C(=O)NC2CCN(CCN3CCN(c4ccc5c(c4)C(=O)N(C4CCC(=O)NC4=O)C5=O)CC3)CC2)c(F)cc1Nc1ncc2c(n1)N(C1CCCC1)CC(F)(F)C(=O)N2C (stereo not drawn) [Compound 68, 4-((9-cyclopentyl-7,7-difluoro-5-methyl-6-oxo-6,7,8,9-tetrahydro-5H-pyrimido[4,5-b][1,4]diazepin-2-yl)amino)-N-(1-(2-(4-(2-(2,6-dioxopiperidin-3-yl)-1,3-dioxoisoindolin-5-yl)piperazin-1-yl)ethyl)piperidin-4-yl)-2-fluoro-5-methoxybenzamide] | 60 to 80 | ≤ 500 | 
CN1C(=O)C(F)(F)CN(C2CCCC2)c2nc(Nc3cc(F)c(C(=O)NC4CCN(CCOCCOCCNc5cccc6c5C(=O)N(C5CCC(=O)NC5=O)C6=O)CC4)cc3OC3CCCC3)ncc21 (stereo not drawn) [Example 95, 4-((9-cyclopentyl-7,7-difluoro-5-methyl-6-oxo-6,7,8,9-tetrahydro-5H-pyrimido[4,5-b][1,4]diazepin-2-yl)amino)-5-(cyclopentyloxy)-N-(1-(2-(2-(2-((2-(2,6-dioxopiperidin-3-yl)-1,3-dioxoisoindolin-4-yl)amino)ethoxy)ethoxy)ethyl)piperidin-4-yl)-2-fluorobenzamide] | 60 to 80 | > 500 | 
COc1cc(C(=O)N[C@@H]2CCN(C(=O)CCN3CCN(c4ccc5c(c4)C(=O)N(C4CCC(=O)NC4=O)C5=O)CC3)C2)c(F)cc1Nc1ncc2c(n1)N(C1CCCC1)CC(F)(F)C(=O)N2C (stereo partly drawn) [Compound 137, 4-((9-cyclopentyl-7,7-difluoro-5-methyl-6-oxo-6,7,8,9-tetrahydro-5H-pyrimido[4,5-b][1,4]diazepin-2-yl)amino)-N-((3R)-1-(3-(4-(2-(2,6-dioxopiperidin-3-yl)-1,3-dioxoisoindolin-5-yl)piperazin-1-yl)propanoyl)pyrrolidin-3-yl)-2-fluoro-5-methoxybenzamide] | ≥ 80 | ≤ 50 | 
COc1cc(C(=O)NC2CCN(CCOCCOCCNc3ccc4c(c3)C(=O)N(C3CCC(=O)NC3=O)C4=O)CC2)c(F)cc1Nc1ncc2c(n1)N(C1CCCC1)CC(F)(F)C(=O)N2C (stereo not drawn) [Compound 50, 4-((9-cyclopentyl-7,7-difluoro-5-methyl-6-oxo-6,7,8,9-tetrahydro-5H-pyrimido[4,5-b][1,4]diazepin-2-yl)amino)-N-(1-(2-(2-(2-((2-(2,6-dioxopiperidin-3-yl)-1,3-dioxoisoindolin-5-yl)amino)ethoxy)ethoxy)ethyl)piperidin-4-yl)-2-fluoro-5-methoxybenzamide] | ≥ 80 | ≤ 50 | 
COc1cc(C(=O)NC2CCN(CCCCCNc3cccc4c3C(=O)N(C3CCC(=O)NC3=O)C4=O)CC2)c(F)cc1Nc1ncc2c(n1)N(C1CCCC1)CC(F)(F)C(=O)N2C (stereo not drawn) [Compound 9, 4-((9-cyclopentyl-7,7-difluoro-5-methyl-6-oxo-6,7,8,9-tetrahydro-5H-pyrimido[4,5-b][1,4]diazepin-2-yl)amino)-N-(1-(5-((2-(2,6-dioxopiperidin-3-yl)-1,3-dioxoisoindolin-4-yl)amino)pentyl)piperidin-4-yl)-2-fluoro-5-methoxybenzamide] | 60 to 80 | ≤ 500 | 
COc1cc(C(=O)NC2CCN(CCOCCOCCOCCOCCOCCOCCOCCNC(=O)COc3cccc4c3C(=O)N(C3CCC(=O)NC3=O)C4=O)CC2)c(F)cc1Nc1ncc2c(n1)N(C1CCCC1)CC(F)(F)C(=O)N2C (stereo not drawn) [Compound 58, 4-((9-cyclopentyl-7,7-difluoro-5-methyl-6-oxo-6,7,8,9-tetrahydro-5H-pyrimido[4,5-b][1,4]diazepin-2-yl)amino)-N-(1-(1-((2-(2,6-dioxopiperidin-3-yl)-1,3-dioxoisoindolin-4-yl)oxy)-2-oxo-6,9,12,15,18,21,24-heptaoxa-3-azahexacosan-26-yl)piperidin-4-yl)-2-fluoro-5-methoxybenzamide] | < 60 |  | 
COc1cc(C(=O)NCC2CCCN(CCOCCNc3cccc4c3C(=O)N(C3CCC(=O)NC3=O)C4=O)C2)c(F)cc1Nc1ncc2c(n1)N(C1CCCC1)CC(F)(F)C(=O)N2C (stereo not drawn) [Compound 125, 4-((9-cyclopentyl-7,7-difluoro-5-methyl-6-oxo-6,7,8,9-tetrahydro-5H-pyrimido[4,5-b][1,4]diazepin-2-yl)amino)-N-((1-(2-(2-((2-(2,6-dioxopiperidin-3-yl)-1,3-dioxoisoindolin-4-yl)amino)ethoxy)ethyl)piperidin-3-yl)methyl)-2-fluoro-5-methoxybenzamide] | ≥ 80 | ≤ 50 | 
COc1cc(C(=O)NC2CCN(CCCCCCCCCCCCCNc3cccc4c3C(=O)N(C3CCC(=O)NC3=O)C4=O)CC2)c(F)cc1Nc1ncc2c(n1)N(C1CCCC1)CC(F)(F)C(=O)N2C (stereo not drawn) [Compound 16, 4-((9-cyclopentyl-7,7-difluoro-5-methyl-6-oxo-6,7,8,9-tetrahydro-5H-pyrimido[4,5-b][1,4]diazepin-2-yl)amino)-N-(1-(13-((2-(2,6-dioxopiperidin-3-yl)-1,3-dioxoisoindolin-4-yl)amino)tridecyl)piperidin-4-yl)-2-fluoro-5-methoxybenzamide] | < 60 |  | 
COc1cc(C(=O)N[C@H]2CCN(C(=O)CCC(=O)N3CCN(c4cccc5c4C(=O)N(C4CCC(=O)NC4=O)C5=O)CC3)C2)ccc1Nc1ncc2c(n1)N(C1CCCC1)CC(F)(F)C(=O)N2C (stereo partly drawn) [Compound 141, 4-((9-cyclopentyl-7,7-difluoro-5-methyl-6-oxo-6,7,8,9-tetrahydro-5H-pyrimido[4,5-b][1,4]diazepin-2-yl)amino)-N-((3S)-1-(4-(4-(2-(2,6-dioxopiperidin-3-yl)-1,3-dioxoisoindolin-4-yl)piperazin-1-yl)-4-oxobutanoyl)pyrrolidin-3-yl)-3-methoxybenzamide] | ≥ 80 | ≤ 50 | 
COc1cc(C(=O)NC2CCN(CCCCCCCCCCNc3cccc4c3C(=O)N(C3CCC(=O)NC3=O)C4=O)CC2)c(F)cc1Nc1ncc2c(n1)N(C1CCCC1)CC(F)(F)C(=O)N2C (stereo not drawn) [Compound 14, 4-((9-cyclopentyl-7,7-difluoro-5-methyl-6-oxo-6,7,8,9-tetrahydro-5H-pyrimido[4,5-b][1,4]diazepin-2-yl)amino)-N-(1-(10-((2-(2,6-dioxopiperidin-3-yl)-1,3-dioxoisoindolin-4-yl)amino)decyl)piperidin-4-yl)-2-fluoro-5-methoxybenzamide] | < 60 |  | 

Reference: US20230372498A1, “PLK1 SELECTIVE DEGRADATION INDUCING COMPOUND” (UPPTHERA, priority 2020, published 2023)
